The numbers were not newly measured in patent publication US20240091148A1, “EUTECTIC SOLVENTS COMPRISING PHARMACEUTICAL AGENTS, AND METHODS OF MAKING AND USE THEREOF” (Novilla Pharmaceuticals, Inc., priority 2018, published 2024), which cites them from elsewhere.

SMILES strings stand for the structures.

The conditions of this data set: values stated in the description, no method or source given.

Take `C[C@H]1C[C@H]2[C@@H]3CCC4=CC(=O)C=C[C@]4(C)[C@@]3(Cl)[C@@H](O)C[C@]2(C)[C@@]1(O)C(=O)CO` [beclomethasone]: the pKa was 13-16.

As for `CCCC1O[C@@H]2C[C@H]3[C@@H]4CCC5=CC(=O)C=C[C@]5(C)[C@H]4[C@@H](O)C[C@]3(C)[C@]2(C(=O)CO)O1` (stereo partly drawn) [budesonide], the pKa is reported as 13-15.

Regarding `CC(C)C(=O)OCC(=O)[C@@]12O[C@H](C3CCCCC3)O[C@@H]1C[C@H]1[C@@H]3CCC4=CC(=O)C=C[C@]4(C)[C@H]3[C@@H](O)C[C@@]12C` [ciclesonide], the pKa is listed as 14-16.

For the molecule `CN(C)CCOC(C)(c1ccccc1)c1ccccn1` (stereo not drawn) [doxylamine], the pKa is on record as 8.7-9.2.

Consider `C[C@@H]1C[C@H]2[C@@H]3C[C@H](F)C4=CC(=O)C=C[C@]4(C)[C@@]3(F)[C@@H](O)C[C@]2(C)[C@@]1(O)C(=O)SCF` [fluticasone], for which the pKa is on record as 12-14.

As to `C[C@@H]1C[C@H]2[C@@H]3CCC4=CC(=O)C=C[C@]4(C)[C@@]3(Cl)[C@@H](O)C[C@]2(C)[C@@]1(O)C(=O)CCl` [mometasone], the pKa is listed as 12-13.
